Experimental data reported in PMC12198282, “Application of a high-density microelectrode array assay using a 3D human iPSC-derived brain microphysiological system model for in vitro neurotoxicity screening of environmental compounds” (Archives of Toxicology, 2025).
Like-named read-outs stand apart in the source and are kept apart here.

Tests used:
[1] = system: 2D rat cortical cultures; details: cited from earlier work; on hitc CCTE Shafer MEA dev active electrodes number: key: 1 (active); 0 (inactive); on hitc CCTE Shafer MEA dev burst duration mean: key: 1 (active); 0 (inactive); on hitc CCTE Shafer MEA dev burst rate: key: 1 (active); 0 (inactive); on hitc CCTE Shafer MEA dev bursting electrodes number: key: 1 (active); 0 (inactive); on hitc CCTE Shafer MEA dev correlation coefficient mean: key: 1 (active); 0 (inactive); on hitc CCTE Shafer MEA dev firing rate mean: key: 1 (active); 0 (inactive); on hitc CCTE Shafer MEA dev inter network spike interval mean: key: 1 (active); 0 (inactive); on hitc CCTE Shafer MEA dev interburst interval mean: key: 1 (active); 0 (inactive); on hitc CCTE Shafer MEA dev mutual information norm: key: 1 (active); 0 (inactive); on hitc CCTE Shafer MEA dev network spike duration std: key: 1 (active); 0 (inactive); on hitc CCTE Shafer MEA dev network spike number: key: 1 (active); 0 (inactive); on hitc CCTE Shafer MEA dev network spike peak: key: 1 (active); 0 (inactive); on hitc CCTE Shafer MEA dev per burst interspike interval: key: 1 (active); 0 (inactive); on hitc CCTE Shafer MEA dev per burst spike percent: key: 1 (active); 0 (inactive); on hitc CCTE Shafer MEA dev per network spike spike number mean: key: 1 (active); 0 (inactive); on hitc CCTE Shafer MEA dev per network spike spike percent: key: 1 (active); 0 (inactive); on hitc CCTE Shafer MEA dev spike duration mean: key: 1 (active); 0 (inactive)
[2] = system: 2D rat cortical cultures; details: cited from earlier work; for AC50: rNFA mc5; on hitc CCTE Shafer MEA dev active electrodes number: key: 1 (active); 0 (inactive); on hitc CCTE Shafer MEA dev burst duration mean: key: 1 (active); 0 (inactive); on hitc CCTE Shafer MEA dev burst rate: key: 1 (active); 0 (inactive); on hitc CCTE Shafer MEA dev bursting electrodes number: key: 1 (active); 0 (inactive); on hitc CCTE Shafer MEA dev correlation coefficient mean: key: 1 (active); 0 (inactive); on hitc CCTE Shafer MEA dev firing rate mean: key: 1 (active); 0 (inactive); on hitc CCTE Shafer MEA dev inter network spike interval mean: key: 1 (active); 0 (inactive); on hitc CCTE Shafer MEA dev interburst interval mean: key: 1 (active); 0 (inactive); on hitc CCTE Shafer MEA dev mutual information norm: key: 1 (active); 0 (inactive); on hitc CCTE Shafer MEA dev network spike duration std: key: 1 (active); 0 (inactive); on hitc CCTE Shafer MEA dev network spike number: key: 1 (active); 0 (inactive); on hitc CCTE Shafer MEA dev network spike peak: key: 1 (active); 0 (inactive); on hitc CCTE Shafer MEA dev per burst interspike interval: key: 1 (active); 0 (inactive); on hitc CCTE Shafer MEA dev per burst spike percent: key: 1 (active); 0 (inactive); on hitc CCTE Shafer MEA dev per network spike spike number mean: key: 1 (active); 0 (inactive); on hitc CCTE Shafer MEA dev per network spike spike percent: key: 1 (active); 0 (inactive); on hitc CCTE Shafer MEA dev spike duration mean: key: 1 (active); 0 (inactive)
[3] = system: BrainSpheres; assay: Cytotoxicity evaluation, resazurin assay (BrainSphere.Cyto); type: cell-based, human; details: for AC50: Homo sapiens, 312 h, read-out: ac50 BrainSphere.Cyto; for Cytotoxicity hit: after 13 days of exposure; for hitc BrainSphere.Cyto: day 13, tcplfit2; for BMD BrainSphere.Cyto: tcplfit2 BMD at benchmark response (1.349*SD of baseline controls); on hitc BrainSphere.Cyto: key: 1 (active); 0 (inactive)
Description: For the resazurin assay, BrainSpheres were cultured for 7 weeks in non-treated 6-well plates under gyratory shaking. Subsequently, the cells were exposed in the same manner as the HD-MEA plates. This assay was used to determine cell viability after exposure for 13 days to the different compounds. After exposure, resazurin diluted in PBS was added directly to the 6-well plates to a final concentration of 0.1 mg/ml. The plates were then put in an incubator for 3 h at 37 °C, 5% CO2. Then, 100 µl of the media was collected and transferred in a 96-well plate for fluorescence analysis, which was done at ex:530 nm/em:590 nm in a multi-well fluorometric reader CytoFluor series 4000 (PerSeptive Biosystems, Inc).
Ten metrics were measured to evaluate changes in neural activity in the BrainSphere MEA assay (Table 3). Considering the complexity of the data which includes seven recording days for each single ROI in a well, an area under the curve (AUC) metric was used to reduce activity across time as described in previous publications (Brown et al. [2016]; Frank et al. [2017b]; Shafer et al. [2019]). […] For concentration–response modeling, the mean AUC values across all the BrainSpheres per well (technical replicates) was computed for each endpoint, such that each concentration included biological replicates from at least three separate wells on three separate plates, representing each individual experiment. The mean AUC values were used for concentration–response modeling using the R package tcplfit2 (version 0.1.6) (Sheffield et al. [2022]). Data were normalized as a percent of vehicle control wells by plate using the equation: resp.pc=rval-bval/bval×100 where resp.pc is the percent of control value, rval is the response value, and bval is the baseline value (defined as the mean of the vehicle control and the lowest tested concentration). […] The activity cutoff was defined as 3 times the median absolute deviation (bmad) of baseline values. A curve was defined as ‘active’ if the continuous hit call was ≥ 0.9. See Supplemental Table 1 for the bmad, activity cutoff threshold, SD, and benchmark response for each endpoint in the BrainSphere MEA. Potency was defined as the concentration at 50% maximal activity (AC50 log10 µM).

[4] = ref Brown et al. [2016], Carstens et al. [2022], Frank et al. [2017b], Shafer et al. [2019], ToxCast invitrodb (v4.2)

In the case of `C/C(=C/C=C/[C@@H](C)C(=O)O)[C@H]1CN[C@H](C(=O)O)[C@H]1CC(=O)O` [Domoic acid], the “hitc CCTE_Shafer_MEA_dev_AB” value ([1]; rNFA mc5 hit call, cytotoxicity AlamarBlue) is given as 0, the AC50 ([2]; aenm active_electrodes_number, read-out: ac50 CCTE_Shafer_MEA_dev_active_electrodes_number) is given as 970 nM and the AC50 ([2]; aenm burst_duration_mean, read-out: ac50 CCTE_Shafer_MEA_dev_burst_duration_mean) is given as 992 nM. For the same compound, the AC50 ([2]; aenm burst_rate, read-out: ac50 CCTE_Shafer_MEA_dev_burst_rate) was 131 nM, the AC50 ([2]; aenm bursting_electrodes_number, read-out: ac50 CCTE_Shafer_MEA_dev_bursting_electrodes_number) was 1280 nM and the AC50 ([2]; aenm correlation_coefficient_mean, read-out: ac50 CCTE_Shafer_MEA_dev_correlation_coefficient_mean) was 1560 nM. For the same compound, the AC50 ([2]; aenm firing_rate_mean, read-out: ac50 CCTE_Shafer_MEA_dev_firing_rate_mean) was 68 nM, the AC50 ([2]; aenm inter_network_spike_interval_mean, read-out: ac50 CCTE_Shafer_MEA_dev_inter_network_spike_interval_mean) was 160 nM and the AC50 ([2]; aenm interburst_interval_mean, read-out: ac50 CCTE_Shafer_MEA_dev_interburst_interval_mean) was 32 nM. The AC50 ([2]; aenm mutual_information_norm, read-out: ac50 CCTE_Shafer_MEA_dev_mutual_information_norm) was 51 nM, the AC50 ([2]; aenm network_spike_duration_std, read-out: ac50 CCTE_Shafer_MEA_dev_network_spike_duration_std) was 259 nM and the AC50 ([2]; aenm network_spike_number, read-out: ac50 CCTE_Shafer_MEA_dev_network_spike_number) was 22 nM. For the same compound, the AC50 ([2]; aenm network_spike_peak, read-out: ac50 CCTE_Shafer_MEA_dev_network_spike_peak) was 1830 nM, the AC50 ([2]; aenm per_burst_interspike_interval, read-out: ac50 CCTE_Shafer_MEA_dev_per_burst_interspike_interval) was 1330 nM and the AC50 ([2]; aenm per_burst_spike_percent, read-out: ac50 CCTE_Shafer_MEA_dev_per_burst_spike_percent) was 2060 nM. For the same compound, the AC50 ([2]; aenm per_network_spike_spike_number_mean, read-out: ac50 CCTE_Shafer_MEA_dev_per_network_spike_spike_number_mean) was 1050 nM, the AC50 ([2]; aenm per_network_spike_spike_percent, read-out: ac50 CCTE_Shafer_MEA_dev_per_network_spike_spike_percent) was 2340 nM and the AC50 ([2]; aenm spike_duration_mean, read-out: ac50 CCTE_Shafer_MEA_dev_spike_duration_mean) was 1120 nM. The “hitc CCTE_Shafer_MEA_dev_active_electrodes_number” value ([2]; rNFA mc5 hit call, aenm active_electrodes_number) was 1, the “hitc CCTE_Shafer_MEA_dev_burst_duration_mean” value ([2]; rNFA mc5 hit call, aenm burst_duration_mean) was 1 and the “hitc CCTE_Shafer_MEA_dev_burst_rate” value ([2]; rNFA mc5 hit call, aenm burst_rate) was 1. For the same compound, the “hitc CCTE_Shafer_MEA_dev_bursting_electrodes_number” value ([2]; rNFA mc5 hit call, aenm bursting_electrodes_number) was 1, the “hitc CCTE_Shafer_MEA_dev_correlation_coefficient_mean” value ([2]; rNFA mc5 hit call, aenm correlation_coefficient_mean) was 1 and the “hitc CCTE_Shafer_MEA_dev_firing_rate_mean” value ([2]; rNFA mc5 hit call, aenm firing_rate_mean) was 1. The “hitc CCTE_Shafer_MEA_dev_inter_network_spike_interval_mean” value ([2]; rNFA mc5 hit call, aenm inter_network_spike_interval_mean) was 1, the “hitc CCTE_Shafer_MEA_dev_interburst_interval_mean” value ([2]; rNFA mc5 hit call, aenm interburst_interval_mean) was 1 and the “hitc CCTE_Shafer_MEA_dev_mutual_information_norm” value ([2]; rNFA mc5 hit call, aenm mutual_information_norm) was 1. For the same compound, the “hitc CCTE_Shafer_MEA_dev_network_spike_duration_std” value ([2]; rNFA mc5 hit call, aenm network_spike_duration_std) was 1, the “hitc CCTE_Shafer_MEA_dev_network_spike_number” value ([2]; rNFA mc5 hit call, aenm network_spike_number) was 1 and the “hitc CCTE_Shafer_MEA_dev_network_spike_peak” value ([2]; rNFA mc5 hit call, aenm network_spike_peak) was 1. The “hitc CCTE_Shafer_MEA_dev_per_burst_interspike_interval” value ([2]; rNFA mc5 hit call, aenm per_burst_interspike_interval) was 1, the “hitc CCTE_Shafer_MEA_dev_per_burst_spike_percent” value ([2]; rNFA mc5 hit call, aenm per_burst_spike_percent) was 1 and the “hitc CCTE_Shafer_MEA_dev_per_network_spike_spike_number_mean” value ([2]; rNFA mc5 hit call, aenm per_network_spike_spike_number_mean) was 1. For the same compound, the “hitc CCTE_Shafer_MEA_dev_per_network_spike_spike_percent” value ([2]; rNFA mc5 hit call, aenm per_network_spike_spike_percent) was 1, the “hitc CCTE_Shafer_MEA_dev_spike_duration_mean” value ([2]; rNFA mc5 hit call, aenm spike_duration_mean) was 1 and the “Bioactivity in the rNFA (in words)” value [2, 4] was “alter multiple parameters of network formation”. For the same compound, the AC50 [3] was 5000 nM, the “Cytotoxicity / cell viability in the BrainSphere resazurin assay (in words)” value ([3]; day 13 of exposure) was “magnitude of the response was not sufficient to indicate a positive response” and the Cytotoxicity hit ([3]; resazurin) was 0. For the same compound, the “hitc BrainSphere.Cyto” value ([3]; resazurin) was 0, the “BMD BrainSphere.Cyto” value [3] was 4.5 µM and the “ACC BrainSphere.Cyto” value ([3]; tcplfit2 output ACC, activity cutoff in Supplemental Table 1) was 5.4 µM.
In the case of `ClC1=C(Cl)[C@]2(Cl)[C@@H]3[C@@H]4C[C@@H]([C@H]5O[C@@H]45)[C@@H]3[C@@]1(Cl)C2(Cl)Cl` [Dieldrin], the “hitc CCTE_Shafer_MEA_dev_AB” value [1] is given as 1, the AC50 ([1]; read-out: ac50 CCTE_Shafer_MEA_dev_AB, rNFA mc5, cytotoxicity AlamarBlue) is given as 22400 nM and the “Cytotoxicity in the resazurin assay of the rNFA (in words)” value [1, 4] is given as “demonstrating cytotoxicity in the rNFA”. For the same compound, the AC50 ([3]; resazurin, day 13, Supplement 3 prints it also for curves with hit call 0) was 45000 nM, the Cytotoxicity hit ([3]; resazurin) was 0 and the “hitc BrainSphere.Cyto” value ([3]; resazurin) was 0. For the same compound, the “BMD BrainSphere.Cyto” value [3] was 509 µM.
